Consider two molecules from ChEMBL document CHEMBL5385934, “Identification of two novel chemical classes of Autotaxin (ATX) inhibitors using Enalos Asclepios KNIME nodes” (Bioorg Med Chem Lett, 2024).

One may read the inhibition as the percentage by which the read-out fell short of the control. Broadly, the pIC50 is the negative decadic logarithm of the IC50, by convention in mol/L.

pIC50: −log10 of the molar value. Active and inactive are the calls of the source. No cut-off for these calls is given here.

The target of test [1] is T1, Autotaxin (Homo sapiens, UniProt Q13822). Nature of the test: Inhibition of human ATX assessed as decrease in LPC hydrolysis by Amplex Red assay.
In test [2] the target is T1, Autotaxin. The experiment in a line: Inhibition of human ATX at 100 uM by Amplex Red assay relative to control.
Test [3] concerns the target T1, Autotaxin. Nature of the test: Inhibition of human ATX assessed as decrease in LPC hydrolysis upto 2.5 uM by Amplex Red assay.
Test [4] addresses T1, Autotaxin. Nature of the test: Inhibition of human ATX by Amplex Red assay.

As for `O=C(CSc1nnc(-c2ccco2)o1)N1c2ccccc2Sc2ccc(Cl)cc21`, the inhibition result in test [1] and in test [3] was “Active” each time. The molecule also yielded an inhibition in test [2] of 87%. The pIC50 in test [4] is 5.03.

As for `Cc1nc(Nc2cccc(C3CCCN3C(=O)c3n[nH]c4c3CCCC4)n2)sc1C` (stereo not drawn), the inhibition entry in test [1] and in test [3] was “Active” in each case. The inhibition in test [2] was determined as 85%. In test [4], this molecule gave a pIC50 of 5.60.
